target: factor B (Homo sapiens, UniProt P00751); assay: factor B inhibition assay of Biological Example 1; format: biochemical; set-up: CVF-Bb complex prepared from purified cobra venom factor (1 μM), recombinant human complement factor B; made in house; host or cells: drosophila cells (factor B); E. coli (factor D used to form the complex); conditions: IC50 (nM), assay of Biological Example 1 (Table 1)
Sequence (P00751 260-764 limits assumed): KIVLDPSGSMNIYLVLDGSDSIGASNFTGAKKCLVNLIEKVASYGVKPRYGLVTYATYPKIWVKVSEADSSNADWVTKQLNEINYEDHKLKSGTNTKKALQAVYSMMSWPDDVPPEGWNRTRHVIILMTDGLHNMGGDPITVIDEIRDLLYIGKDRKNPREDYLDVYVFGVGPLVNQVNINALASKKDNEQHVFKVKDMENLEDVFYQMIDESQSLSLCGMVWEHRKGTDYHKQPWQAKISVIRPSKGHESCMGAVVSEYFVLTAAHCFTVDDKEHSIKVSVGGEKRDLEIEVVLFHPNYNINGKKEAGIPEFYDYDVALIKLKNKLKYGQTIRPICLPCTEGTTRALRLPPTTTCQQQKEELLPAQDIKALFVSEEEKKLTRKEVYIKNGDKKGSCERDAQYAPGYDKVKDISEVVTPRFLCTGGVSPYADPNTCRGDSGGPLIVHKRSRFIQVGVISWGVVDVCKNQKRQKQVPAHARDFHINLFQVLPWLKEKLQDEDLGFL
Sequence (Q91132 23-649 partner limits assumed): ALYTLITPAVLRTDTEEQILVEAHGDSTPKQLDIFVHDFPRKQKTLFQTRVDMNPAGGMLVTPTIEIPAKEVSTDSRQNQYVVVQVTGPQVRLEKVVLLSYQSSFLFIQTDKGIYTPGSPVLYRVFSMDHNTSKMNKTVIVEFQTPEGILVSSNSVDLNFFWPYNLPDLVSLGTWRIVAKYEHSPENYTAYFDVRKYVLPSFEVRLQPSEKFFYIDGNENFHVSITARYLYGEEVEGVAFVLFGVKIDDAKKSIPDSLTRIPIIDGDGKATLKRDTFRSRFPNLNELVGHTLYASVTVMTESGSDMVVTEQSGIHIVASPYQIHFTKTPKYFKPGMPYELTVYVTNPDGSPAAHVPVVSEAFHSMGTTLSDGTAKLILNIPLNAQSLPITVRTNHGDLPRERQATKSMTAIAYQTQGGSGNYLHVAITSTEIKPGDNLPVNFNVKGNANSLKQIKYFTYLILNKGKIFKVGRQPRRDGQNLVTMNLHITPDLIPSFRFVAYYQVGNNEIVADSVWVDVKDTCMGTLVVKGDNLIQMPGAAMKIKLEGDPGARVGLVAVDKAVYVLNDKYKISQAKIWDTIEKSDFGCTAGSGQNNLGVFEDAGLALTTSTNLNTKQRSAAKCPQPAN
Sequence (Q91132 733-984 partner limits assumed): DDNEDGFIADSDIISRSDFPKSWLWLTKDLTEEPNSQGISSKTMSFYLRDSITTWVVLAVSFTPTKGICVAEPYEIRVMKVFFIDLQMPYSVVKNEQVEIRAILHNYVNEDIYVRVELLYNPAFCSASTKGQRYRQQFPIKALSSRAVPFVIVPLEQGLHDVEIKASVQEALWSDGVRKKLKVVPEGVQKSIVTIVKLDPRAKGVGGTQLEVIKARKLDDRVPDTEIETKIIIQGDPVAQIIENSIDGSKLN
Sequence (Q91132 1264-1642 partner limits assumed): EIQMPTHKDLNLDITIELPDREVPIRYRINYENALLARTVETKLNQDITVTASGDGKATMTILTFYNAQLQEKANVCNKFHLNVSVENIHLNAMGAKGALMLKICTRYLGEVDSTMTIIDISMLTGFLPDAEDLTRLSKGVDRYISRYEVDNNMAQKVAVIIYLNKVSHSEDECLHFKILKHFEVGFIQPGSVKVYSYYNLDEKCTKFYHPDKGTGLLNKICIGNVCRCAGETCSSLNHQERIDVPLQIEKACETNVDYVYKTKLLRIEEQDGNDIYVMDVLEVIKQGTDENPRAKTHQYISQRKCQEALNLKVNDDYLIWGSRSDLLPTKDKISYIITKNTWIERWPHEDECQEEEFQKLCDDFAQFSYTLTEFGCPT

| SMILES | IC50 [nM] |
| --- | --- |
| CCc1cc(C)c2[nH]ccc2c1C(C)(O)c1nc2cc(C#N)ccc2[nH]1 (single isomer, unassigned; (-)) [77-C b) (−), (−)-2-(1-(5-ethyl-7-methyl-1H-indol-4-yl)-1-hydroxyethyl)-1H-benzo[d]imidazole-5-carbonitrile] | 20 |
| CCc1cc(C)c2[nH]ccc2c1C(N)(c1nc2cc(C#N)ccc2[nH]1)C(F)(F)F (single isomer, unassigned; (-)) [107-C b) (−), (−)-2-(1-amino-1-(5-ethyl-7-methyl-1H-indol-4-yl)-2,2,2-trifluoroethyl)-1H-benzo[d]imidazole-5-carbonitrile] | 30 |
| Cc1cc(C2CC2)c(C(N)(c2nc3cc(C#N)ccc3[nH]2)C(F)(F)F)c2cc[nH]c12 (single isomer, unassigned; (-)) [107-D b) (−), (−)-2-(1-amino-1-(5-cyclopropyl-7-methyl-1H-indol-4-yl)-2,2,2-trifluoroethyl)-1H-benzo[d]imidazole-5-carbonitrile] | 8 |
| COCCOC(c1nc2cc(C#N)ccc2[nH]1)c1c(C)cc(C)c2[nH]ccc12 (racemic) [Example 74, (±)-2-((5,7-Dimethyl-1H-indol-4-yl)(2-methoxyethoxy)methyl)benzo[d]imidazole-5-carbonitrile] | 1870 |
| CC(=O)NCc1cc(C)c2[nH]ccc2c1Cc1nc2cc(C#N)ccc2[nH]1 [Example 61, N-((4-((5-cyano-1H-benzo[d]imidazol-2-yl)methyl)-7-methyl-1H-indol-5-yl)methyl)acetamide] | 6620 |
| Cc1cc(Cl)c(Cc2nc3cc(C#N)ccc3[nH]2)c2cc[nH]c12 [Example 63-B] | 260 |
| COC(c1nc2cc(C#N)ccc2[nH]1)c1c(CC(C)C)cc(C)c2[nH]ccc12 (single isomer, unassigned; (+)) [71 b) (+), (+)-2-((5-isobutyl-7-methyl-1H-indol-4-yl)(methoxy)methyl)-1H-benzo[d]imidazole-5-carbonitrile] | 4550 |
| CCc1cc(C)c2[nH]ccc2c1C(OC)c1nc2cc(C#N)ccc2[nH]1 (single isomer, unassigned; (-)) [70-D b) (−), (−)-2-((5-ethyl-7-methyl-1H-indol-4-yl)(methoxy)methyl)-1H-benzo[d]imidazole-5-carbonitrile] | 480 |
| COc1cc(C)c2[nH]ccc2c1Cc1nc2cc(C#N)ccc2[nH]1 [Example 20-C, 2-((5-Methoxy-7-methyl-1H-indol-4-yl)methyl)-1H-benzo[d]imidazole-5-carbonitrile] | 60 |
| COc1cc(C)c2[nH]ccc2c1C(N)(c1nc2cc(C#N)ccc2o1)C(F)(F)F (racemic) [Example 130-B, (±)-2-(1-Amino-2,2,2-trifluoro-1-(5-methoxy-7-methyl-1H-indol-4-yl)ethyl)benzo[d]oxazole-5-carbonitrile] | 20 |
| CCc1cc(C)c2[nH]ccc2c1C(OCC(=O)O)(c1nc2cc(C#N)ccc2[nH]1)C(F)(F)F (racemic) [Example 109-B, (±)-2-(1-(5-cyano-1H-benzo[d]imidazol-2-yl)-1-(5-ethyl-7-methyl-1H-indol-4-yl)-2,2,2-trifluoroethoxy)acetic acid] | 30 |
| CCC(O)(c1nc2cc(C#N)ccc2[nH]1)c1c(C)cc(C)c2[nH]ccc12 (centres unmarked) [Example 79-G] | 190 |
| CCc1cc(C)c2[nH]ccc2c1C(C)(OC)c1nc2cc(C#N)ccc2[nH]1 (single isomer, unassigned; (-)) [84-C b) (−), (−)-2-(1-(5-ethyl-7-methyl-1H-indol-4-yl)-1-methoxyethyl)-1H-benzo[d]imidazole-5-carbonitrile] | 10 |
| Cc1cc(C)c2[nH]cc(-c3ccn[nH]3)c2c1C(O)c1nc2cc(C#N)ccc2[nH]1 (racemic) [Example 121-D, (±)-2-((5,7-Dimethyl-3-(1H-pyrazol-5-yl)-1H-indol-4-yl)(hydroxy)methyl)-1H-benzo[d]imidazole-5-carbonitrile] | 480 |
| Cc1cc(OC(F)F)c(C(C)(O)c2nc3cc(C#N)ccc3[nH]2)c2cc[nH]c12 (racemic) [6-B b) (+), (+)-2-(1-(5-(difluoromethoxy)-7-methyl-1H-indol-4-yl)-1-hydroxyethyl)-1H-benzo[d]imidazole-5-carbonitrile] | 140 |
| CC(=O)NC(c1nc2cc(C#N)ccc2[nH]1)c1c(C)cc(C)c2[nH]ccc12 (racemic) [Example 100, (±)-N-((5-cyano-1H-benzo[d]imidazol-2-yl)(5,7-dimethyl-1H-indol-4-yl)methyl)acetamide] | 1120 |
| Cc1cc(C2CC2)c(C(O)(c2nc3cc(C#N)ccc3[nH]2)C(F)(F)F)c2cc[nH]c12 (single isomer, unassigned; (-)) [80-E b) (−), (−)-2-(1-(5-cyclopropyl-7-methyl-1H-indol-4-yl)-2,2,2-trifluoro-1-hydroxyethyl)-1H-benzo[d]imidazole-5-carbonitrile] | 10 |
| CCc1cc(C)c2[nH]cc(Cl)c2c1C(O)c1nc2cc(C#N)ccc2[nH]1 (racemic) [Example 87, (±)-2-((3-Chloro-5-ethyl-7-methyl-1H-indol-4-yl)(hydroxy)methyl)-1H-benzo[d]imidazole-5-carbonitrile] | 380 |
| Cc1cc(CC(C)C)c(C(C)(O)c2nc3cc(C#N)ccc3[nH]2)c2cc[nH]c12 (single isomer, unassigned; (-)) [79-D b) (−), (−)-2-(1-hydroxy-1-(5-isobutyl-7-methyl-1H-indol-4-yl)ethyl)-1H-benzo[d]imidazole-5-carbonitrile] | 310 |
| Cc1cc(OCC2CC2)c(C(C)(O)c2nc3cc(C#N)ccc3[nH]2)c2cc[nH]c12 (single isomer, unassigned; (-)) [26-G b) (−), (−)-2-(1-(5-(cyclopropylmethoxy)-7-methyl-1H-indol-4-yl)-1-hydroxyethyl)-1H-benzo[d]imidazole-5-carbonitrile] | 4380 |
| COc1cc(C)c2[nH]ccc2c1C(N)c1nc2cc(C#N)ccc2[nH]1 (single isomer, unassigned) [39-C b) (tr = 30.6 min), (+) or (−)-2-(amino(5-methoxy-7-methyl-1H-indol-4-yl)methyl)-1H-benzo[d]imidazole-5-carbonitrile] | 190 |
| COc1cc(C)c2[nH]ccc2c1C(N)c1nc2cc(C#N)ccc2[nH]1 (single isomer, unassigned) [39-C b) (tr = 24.1 min), (−) or (+)-2-(amino(5-methoxy-7-methyl-1H-indol-4-yl)methyl)-1H-benzo[d]imidazole-5-carbonitrile] | 8 |
| CCc1cc(C)c2[nH]ccc2c1Cc1nc2cc(C#N)ccc2[nH]1 [Example 63-A] | 160 |
| Cc1cc(OC(C)C)c(C(C)(O)c2nc3cc(C#N)ccc3[nH]2)c2cc[nH]c12 (single isomer, unassigned; (-)) [26-E b) (−), (−)-2-(1-hydroxy-1-(5-isopropoxy-7-methyl-1H-indol-4-yl)ethyl)-1H-benzo[d]imidazole-5-carbonitrile] | 170 |
| CCc1cc(C)c(Cc2nc3cc(C#N)ccc3[nH]2)c2cc[nH]c12 [Example 111-E, 2-((7-Ethyl-5-methyl-1H-indol-4-yl)methyl)-1H-benzo[d]imidazole-5-carbonitrile] | 22900 |
| Cc1cc(C)c2[nH]cc(C)c2c1C(O)c1nc2cc(C#N)ccc2[nH]1 (racemic) [Example 89-D, (±)-2-(Hydroxy(3,5,7-trimethyl-1H-indol-4-yl)methyl)-1H-benzo[d]imidazole-5-carbonitrile] | 2320 |

Reference: patent US9056874B2, “Complement pathway modulators and uses thereof” (NOVARTIS AG, priority 2012, dated 2015)
